As a reminder, the MIC is the least concentration at which growth counts as inhibited. A lower MIC goes with greater potency.

Data set [1] has as its system B. subtilis 168. The data set can be described thus: MIC against B. subtilis 168. The format is cell-based. The settings on record: Bacillus subtilis.
Data set [2] has as its system S. aureus ATCC 29247 (ampicillin resistant strain). The data set can be described thus: MIC against clinically isolated strain 1. The following applies: Staphylococcus aureus, ATCC29247. Format: cell-based. As for the experimental part:
(§1) Procedure of Antimicrobial susceptibility test: The MIC value of compounds was measured in the antimicrobial susceptibility test using the broth microdilution procedure in accordance with the CLSI guidelines.^21 Cation-adjusted Mueller Hinton broth (CA-MHB) was used for all the S. aureus strains in the assay. Cells in exponential phase of growth were diluted to approximately 5×10^5 cfu/mL. Stock solutions of each compound were freshly dissolved in dimethyl sulfoxide (DMSO). Then, serial dilutions of each compound in CA-MHB medium were added into 96-well microplate. The final percentage of DMSO in the assay was 1%. Control experiments were performed with 1% DMSO instead of the compound solution. After being incubated at 37° C. for 18 h, OD600 value of cells was measured on a microplate reader and the percentage of bacterial cell inhibition with respect to controls was calculated. The MIC value was defined as the lowest compound concentration at which the growth of bacteria was inhibited by ≥90%. Three independent assays were performed for each compound.
(§2) Results: Three compounds, namely 14av_amine16, 14dv_amine16 and 14dv_amine06, were selected to be tested against nine in-house clinically isolated bacterial strains including S. aureus ATCC29247, which is an ampicillin resistant strain, S. aureus ATCC BAA-41, ATCC BAA-1717, ATCC BAA-1720, ATCC 43300 which are methicillin resistant strains and four USA300 strains, (#417, #757, #1799 and #2690), which are the predominant strain type of community-associated MRSA strains in the United States.

Data set [3] can be described thus: Compound solubility observed in aqueous medium of GTPase assay. The format is physicochemical. The following applies: higher concentration (>80 μM) causes precipitation in aqueous medium. An excerpt:
Nonetheless, it seems very likely that compound 14av_amine16 suppresses the self-polymerization of FtsZ protein, probably via disrupting the GTPase hydrolysis activity of FtsZ protein.

In data set [4] the test system is USA300 #757 (community-associated MRSA). As to the kind of experiment: MIC against clinically isolated strain 7. Format: cell-based, S. aureus. The settings on record: Staphylococcus aureus. As for the experimental part:
as §1, §2

Data set [5] has as its system B. subtilis 168. The data set can be described thus: Bacterial morphology of B. subtilis 168 (phase-contrast microscopy). The format is cell-based. The settings on record: sub-lethal concentration, 4 h. Here is the method:
Procedure: The B. subtilis 168 cells were grown in LB medium. The cultures at an A600 of 0.01 from an overnight culture were inoculated in the same medium containing different concentrations of the test compounds and grown at 37° C. for 4 h. The cells for morphology studies were harvested and resuspended in 100 μL of PBS buffer containing 0.25% agarose. 10 μL of the suspension mixture were then placed on a microscopic slide pretreated with 0.1% (w/v) poly-L-lysine and the morphology of the bacterial cells was observed under a phase-contrast optical microscope at 40× magnification. The images were captured using an Olympus Bio Imaging Navigator FSX 100 microscope.

The next data set concerns the target T1, S. aureus FtsZ (Staphylococcus aureus, UniProt P0A031).
T1 construct: 6-histidine tag; made in house; host or cells: E. coli BL21(DE3)
T1 sequence (P0A031 1-390): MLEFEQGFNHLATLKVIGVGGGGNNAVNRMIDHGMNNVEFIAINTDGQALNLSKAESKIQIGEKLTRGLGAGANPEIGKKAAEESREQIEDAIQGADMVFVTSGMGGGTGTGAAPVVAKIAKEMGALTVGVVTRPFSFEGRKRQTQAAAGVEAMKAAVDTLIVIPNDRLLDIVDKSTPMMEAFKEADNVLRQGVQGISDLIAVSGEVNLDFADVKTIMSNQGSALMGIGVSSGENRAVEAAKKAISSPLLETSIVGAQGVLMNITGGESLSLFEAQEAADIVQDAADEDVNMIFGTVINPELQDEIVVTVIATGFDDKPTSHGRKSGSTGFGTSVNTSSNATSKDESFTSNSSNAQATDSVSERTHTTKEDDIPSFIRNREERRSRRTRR
The data set can be described thus: FtsZ polymerization light scattering assay. Format: biochemical. The settings on record: 30 μm of compound; FtsZ 12.5 μM, 1 mM GTP. Here is the method: Procedure for expression and purification of S. aureus FtsZ protein: S. aureus FtsZ protein was prepared as previous reported.^16a In brief, E. coli BL21(DE3) cells, transformed with a pRSET-A-S vector carrying S. aureus FtsZ with a 6-histidine tag attached, were streaked on a nutrient agar plate containing 50 μg/mL ampicillin. After overnight incubation at 37° C., a single colony was inoculated into 5 mL of Luria-Bertani (LB) medium in the presence of 50 μg/mL ampicillin, which was then incubated at 37° C., with shaking at 250 rpm for 16 h. The overnight culture was transferred into a fresh 2×TY medium in a dilution ratio of 1:100 and 50 μg/mL ampicillin was then added, followed by incubation at 37° C. with shaking at 250 rpm. When OD600 reached 0.8, protein expression was induced with 0.4 mM isopropyl-β-D-thiogalactopyranoside (IPTG) for 4 h. […]
Procedure: The polymerization of recombinant S. aureus FtsZ was measured using a 90° light scattering in a thermostatically (37° C.) controlled Fluorescence Spectrometer LS 50B according to previous reports.^16a,19 Both excitation and emission wavelengths were fixed to 600 nm with a slit width of 2.5 nm. […] After 8 min, the final concentration of 1 mM GTP was added at the last fraction and the increase in light scattering measured for an additional 2000 seconds. The rate and extent of polymerization were measured. […]

The subject of data set [6] is USA300 #417 (community-associated MRSA). The data set can be described thus: MIC against clinically isolated strain 6. The format is cell-based, S. aureus. The settings on record: Staphylococcus aureus. Here is the method: as §1, §2

In brackets after ≈: the same amount, converted by molar mass.

As for `CCC(CC)c1cc(CCN2CCCN(Cc3ccc(C(F)(F)F)cc3)CC2)nc(-c2ccncc2)n1` [Compound 14av_amine16, 1-(2-(6-(pentan-3-yl)-2-(pyridin-4-yl)pyrimidin-4-yl)ethyl)-4-(4-(trifluoromethyl)benzyl)-1,4-diazepane], the MIC against B. subtilis 168 [1] amounted to 12 µM (≈ 6.14 µg/mL); in data set [2], 8 µM (≈ 4.09 µg/mL); in data set [4], 12 µM (≈ 6.14 µg/mL); in data set [6] it was 12 µM (≈ 6.14 µg/mL). For the same compound, the compound solubility entry in data set [3] is recorded as “poor compound solubility”. For the same compound, the average cell length in the data set on B. subtilis 168 [5] is reported as > 20 μm. The “inhibition of FtsZ polymerization” value against S. aureus FtsZ is recorded as “Complete inhibition”.

The values are drawn from US9951039B2, “Pyrimidines for treatment of bacterial infections” (The Hong Kong Polytechnic University, priority 2016, dated 2018).
